According to patent US20210032598A1, “ACTIVATION-INDUCED TISSUE-EFFECTOR CELLS SUITABLE FOR CELL THERAPY AND EXTRACELLUAR VESICLES DERIVED THEREFROM” (Capricor, Inc., priority 2018, published 2021):

What was measured:
CD90 expression in CDCs = test: Flow cytometry of CD90 expression in CDCs; assay type: cell-based, human
Experimental: Referring to FIG. 2, CDCs from two donors (Donor1 and Donor12) were prepared as described herein. The attached CDCs were treated with 30 μM CHIR (Selleckchem, Cat. #S1263), a GSK3β inhibitor, or with no treatment for 72 hours. The cells were then collected, washed with 1% bovine serum albumin (BSA) in 1× phosphated-buffered saline (PBS), and stained with FITC Mouse Anti-Human CD90 (BD Biosciences, Cat. #555595). Flow cytometry was then conducted in BD FACSCanton™ II machine to measure CD90 expression in cells.
(§1) Referring to FIG. 9B, CDCs from Donor 5 were treated with different concentrations of BIO (Sigma-Aldaich, Cat #B1685), a GSK3β inhibitor, for 72 hours. The cells were then collected and lysed with 1× lysis buffer supplied Total β-catenin ELISA (Affymetrix eBioscience InstantOne™ ELISA, Cat. #85-86141-11). Total β-catenin ELISA was performed as per manufacturer's instructions, except that 0.01 mg/mL final protein concentration was used in the assay.
Flow cytometry. Cells were harvested and counted (2×10^5 cells per condition). Cells were washed with 1% bovine serum albumin (BSA) in 1× Phosphated-buffered saline (PBS), and stained with the appropriate antibody (BD Pharmingen) for 1 hr at 4° C. The cells were then washed again and resuspended in 1% BSA in 1×PBS. BD Cytofix/Cytoperm™ kit was used for cell permeabilization before staining, such as LRP5/6 staining. […]

β-catenin levels in CDCs = test: Total β-catenin ELISA in CDCs; assay type: cell-based, human
Experimental: as §1
Referring to FIG. 10, the effect of BIO (as measured by sustained β-catenin activation per ELISA) was measured in CDCs from Donor10. Zero hour is immediately drug wash-off time point following a 72 hour of 5 μM BIO treatment period.
(§2) Cell lysate and protein assay. 4×10^5 cells were collected and pelleted at 1,000 rpm for 5 min at 4° C. Cell pellets were thoroughly mixed with 1× lysis buffer (Affymetrix eBioscience InstantOne ELISA kit) by vortexing and rotating for 10 min at room temperature. Protein lysate was isolated from the cell lysate mixture after centrifugation at 14,000 rpm for 15 min at 4° C. Protein concentration was determined by DC™ Protein Assay kit (Bio-Rad).
(§3) ELISA. Protein collection and protein concentration determination were as described above. Total β-catenin ELISA was performed according the protocol described with final sample concentration of 0.01 mg/ml and positive control of 0.1 mg/ml (ThermoFisher eBioscience InstantOne™ ELISA).

[1] = test system: β-catenin levels in immortalized CDCs; test: Total β-catenin ELISA in immortalized CDCs; assay type: cell-based, human; details: SV40 T+t immortalized CDCs from Donor2; 5 μM BIO for 72 hours vs 0 μM
Experimental: as §2, §3

[2] = test system: β-catenin levels in explant-derived cells (EDCs); test: β-catenin ELISA in explant-derived cells (EDCs); assay type: cell-based, human; details: EDCs from Donor1 and Donor12; BIO for 72 hours compared with sphere formation
[3] = test system: β-catenin levels in kidney cortex cells; test: β-catenin levels in kidney cortex cells; assay type: cell-based; details: FIG. 18B
[4] = test system: mice with acute myocardial infarction; test: Mouse model of acute myocardial infarction, change in left ventricular ejection fraction (echocardiography); assay type: in vivo, mouse (SCID beige); details: 0.1 mg drug injected to heart; measured three weeks after surgery
Experimental: Briefly, 8-week old male severe combined immunodeficient (SCID) beige mice were anesthetized with isoflurane. Following surgical preparation, a 2 cm vertical incision was performed in the midclavicular line for a lateral thoracotomy. The left anterior descending was ligated using 7-0 silk. Animals then received intramyocardial injections of injected at two peri-infarct sites with 10^5 cells (or phosphate buffered saline as a vehicle) in a total of 20 μl (10 μl/site). Echocardiography measurements were taken (to measure change left ventricular ejection fraction) at day 1 post and week 3 post infarction.
Acute myocardial infarction was applied to the three-month-old male severe combined immunodeficient (SCID)—beige mice as previously described. 1×10^5 desired cells or 20 μl of 14 mM drug (BIO or JW67) or exosomes were injected to the SCID heart for rescuing.
Echocardiography. Echocardiography study was performed in the SCID beige in 24 hr (baseline) and 3 weeks after surgery using Vevo 3100 or 770 Imaging System (Visual Sonics) as described^8. The average of the left ventricular ejection fraction was analyzed from multiple left ventricular end-diastolic and left ventricular end-systolic measurements.

[5] = test system: CD90 expression in immortalized CDCs; test: Flow cytometry of CD90 expression in immortalized CDCs; assay type: cell-based, human; details: Wnt3a for 72 hours, vs vehicle
Experimental: Referring to FIG. 3-5, CDCs from immortalized Donor2 were plated on either fibronectin (FN; VWR, Cat. #356009)-coated or CellBIND® (CB)-coated flasks. Attached cells were treated with Wnt3a or with PBS vehicle (ddH2O) for 72 hours. The cells were then analyzed using flow cytometry for CD90 expression with the same protocol as described herein.
Flow cytometry. Cells were harvested and counted (2×10^5 cells per condition). Cells were washed with 1% bovine serum albumin (BSA) in 1× Phosphated-buffered saline (PBS), and stained with the appropriate antibody (BD Pharmingen) for 1 hr at 4° C. The cells were then washed again and resuspended in 1% BSA in 1×PBS. BD Cytofix/Cytoperm™ kit was used for cell permeabilization before staining, such as LRP5/6 staining. The flow cytometry was performed in BD FACSCanto™ II machine.

## O=C1Nc2cc(Br)ccc2/C1=C1/Nc2ccccc2/C1=N\O [BIO, 6-bromoindirubin-3′-oxime]
CD90 expression in CDCs; CDCs from Donor5, increasing BIO concentrations
  CD90 levels: decreasing CD90 levels with increasing BIO concentrations
β-catenin levels in CDCs; CDCs from Donor5, different concentrations of BIO for 72 hours
  levels of β-catenin: increased with increasing BIO concentration
β-catenin levels in CDCs; CDCs from Donor10, after 72 hour 5 μM BIO treatment
  time of peak β-catenin activation after drug washout: 24 h
β-catenin levels in CDCs; FIG. 10, β-catenin activation per ELISA
  duration of effect of BIO treatment after washout: at least 24 hours
β-catenin levels in CDCs; non-potent CDCs from Donor5, 10 μM BIO for 72 hours vs 0 μM
  β-catenin restoration: successful β-catenin restoration
β-catenin levels in CDCs; non-potent CDCs from Donor6-2, 5 μM BIO for 72 hours vs control vehicle
  β-catenin restoration: successful β-catenin restoration
[1]
  β-catenin restoration: successful β-catenin restoration
[2]
  β-catenin expression: equal or better enhanced β-catenin expression
[3]
  β-catenin levels: further increases β-catenin levels
[4]
  cardiac recovery (cardiac ejection fraction change): improves cardiac recovery

## Cc1cnc(-c2cnc(NCCNc3ccc(C#N)cn3)nc2-c2ccc(Cl)cc2Cl)[nH]1 [CHIR, 6-[[2-[[4-(2,4-Dichlorophenyl)-5-(5-methyl-1H-imidazol-2-yl)-2-pyrimidinyl]amino]ethyl]amino]-3-pyridinecarbonitrile]
CD90 expression in CDCs; 30 μM CHIR for 72 hours, CDCs from Donor1 and Donor12, vs no treatment
  CD90 levels: decreased the CD90 levels

## O=C1Nc2ccccc2C12OCC1(CO2)COC2(OC1)C(=O)Nc1ccccc12 (centres unmarked) [JW67, Trispiro[3H-indole-3,2′-[1,3]dioxane-5′5″-[1,3]dioxane-2″,3′″-[3H]indole]-2,2′″(1H,1′″H)-dione(9Cl)]
[4]
  cardiac recovery (cardiac ejection fraction change): improves cardiac recovery

B1: Wnt3a: activator of the Wnt signaling pathway (protein, UniProt P56704 19-352, looked up)
Protein Wnt-3a: SYPIWWSLAVGPQYSSLGSQPILCASIPGLVPKQLRFCRNYVEIMPSVAEGIKIGIQECQHQFRGRRWNCTTVHDSLAIFGPVLDKATRESAFVHAIASAGVAFAVTRSCAEGTAAICGCSSRHQGSPGKGWKWGGCSEDIEFGGMVSREFADARENRPDARSAMNRHNNEAGRQAIASHMHLKCKCHGLSGSCEVKTCWWSQPDFRAIGDFLKDKYDSASEMVVEKHRESRGWVETLRPRYTYFKVPTERDLVYYEASPNFCEPNPETGSFGTRDRTCNVSSHGIDGCDLLCCGRGHNARAERRREKCRCVFHWCCYVSCQECTRVYDVHTCK
[5]; immortalized Donor2 CDCs on CellBIND (CB)-coated flasks
  CD90 level: no such effect is observed
[5]; immortalized Donor2 CDCs on fibronectin (FN)-coated flasks
  CD90 level: decreased the CD90 level
